Structures are written as SMILES. Where two headings read alike, the source gives them in different places.

The subject of data set [1] is basal gastric acid secretion. The data set can be described thus: Inhibition of total acid output (basal gastric acid secretion) in the acute gastric fistula rat. The class given is in vivo, female Sprague-Dawley rats. The settings on record: Rattus norvegicus, intraduodenal. Here is the method:
Inhibition of basal gastric acid secretion can be determined by the following procedure.
Female Sprague-Dawley rats weighing 140-160 grams are fasted in individual cages for 18-24 hours. The rats are then lightly anesthetized with ether and their front teeth extracted to avoid destruction of the plastic cannula. A midline incision is then made and the stomach and duodenum exposed. A flanged polyvinyl tube is inserted into the fundic portion of the stomach and secured with a purse string suture line using 4-O Mersilene. The rat is then dosed by injection of the compound into the duodenum (1.0 ml. per 100 gram body weight). After dosing, the abdominal wall and skin are closed using metal wound clips. The rat is replaced in a cage containing a longitudinal slit to allow the polyvinyl tube to hang freely. An 8 ml. plastic collecting tube is attached to the flanged cannula and hangs freely below the cage. The first 30 minute sample is discarded designating this time as zero. The collecting tube is attached again and samples removed at the end of 60 and 120 minutes. These samples are referred to as "A" and "B" in the table. The hourly samples are then transferred to a 15 ml. centrifuge and centrifuged for 5-10 minutes. Total and sediment volume are then recorded with the supernatent volume being used as volume of secretion. A 1 ml. or less aliquot is then removed and placed in a 50 ml. beaker containing 10 ml. of distilled water. This sample is then titrated using 0.01 N NaPH to pH 7.0 using a Beckman zeromatic pH meter. Volume, titratable acidity (mew/L) and total acid output (ueq/hour) are recorded. Percent inhibition is determined by comparison with the appropriate control. Groups of three rats were used for preliminary testing, and groups of six rats were used for dose-response evaluations. All compounds are administered in a vehicle consisting of 0.5% methocel, 0.4% tween 80, and saline at a constant volume of 1 ml./100 gram rat. Samples are dispersed by sonification. Percent inhibition is calculated on basis of concurrent vehicle control.
In Table III which follows is given the effect on total acid output after 60 minutes and 120 minutes of intraduodenal dose, of representative compounds of this invention.

The subject of data set [2] is bronchospasms elicited by histamine. Nature of the data set: Bronchodilator activity (Konzett assay), histamine bronchospasm. The class given is in vivo, guinea pigs. The settings on record: Cavia porcellus, iv, spasmogenic agent histamine; three logarithmic cumulative intravenous doses. Here is the method: (§1) Bronchodilator activity was determined in guinea pigs against bronchospasms elicited by intravenous injections of 5-hydroxytryptamine, histamine or acetylchlorine by the Konzett procedure. (See J. Lulling, P. Licvens, F. El Sayed and J. Prignot, Arzneinittel-Forschung, 18, 995 (1968).]
(§2) In the Table which follows bronchodilator activity for representative compounds of this invention against one or more of the three spasmogenic agents is expressed as an ED50 determined from the results obtained with three logarithmic cumulative intravenous doses.

In data set [3] the test system is bronchospasms elicited by acetylcholine. Nature of the data set: Bronchodilator activity (Konzett assay), acetylcholine bronchospasm. As to conditions: Cavia porcellus; spasmogenic agent acetylcholine; three logarithmic cumulative intravenous doses. Type of data set: in vivo, guinea pigs. On the procedure: as §1, §2
Data set [4] has as its system bronchospasms elicited by 5-hydroxytryptamine. The data set can be described thus: Bronchodilator activity (Konzett assay), 5-hydroxytryptamine bronchospasm. The settings on record: Cavia porcellus; spasmogenic agent 5-hydroxytryptamine; three logarithmic cumulative intravenous doses. Type of data set: in vivo, guinea pigs. On the procedure: as §1, §2
Another data set relates to ligated intestine. On the set-up: species or system female Sprague-Dawley rats. The settings on record: rat, in vivo, 10 mg/kg. On the procedure: It is therefore unexpected and novel that in general, the compounds of this invention are not diarrheagenic at dose levels at which they are effective gastric acid secretion inhibitors. One measure of diarrheagenic potential is the ileal ligated rat assay, a description of which follows directly.
Female Sprague-Dawley rats (Charles River Laboratories) weighing less than 100 grams are fasted in individual cages for at least 18 hours. They are then anesthetized with ether and a midline incision made. The duodenum is exposed and the test drug or control injected intraduodenally. The ilcocecal junction is then exposed and the terminal ileum is ligated using 3-0 silk thread just proximal to the junction. The incision is then closed using wound clips. Rats are placed back in individual cages without food or water for four hours. After this time the rats were sacrificed, the stomach and small intestine carefully removed, and cleaned of adherent mesentery. The removed portion of gut is then weighed to the nearest 0.1 gram. Compounds inducing diarrhea such as prostaglandins, cholera toxin, etc. produce an increase in weight of the ligated intestine. This increase from control is noted in Table IV, as change in weight in grams after standardizing weights of gut to grams/100 gram rat. An increase in intestinal weight of about 1.0 g. is considered indicative of diarrheagenic potential.
When measured by this assay at effective gastric acid secretion inhibiting doses, as determined by the acute rat fistula assay representative novel compounds of Table IV are non-diarrheagenic.

Another data set concerns gastric acid secretion. The data set can be described thus: Gastric acid secretion inhibition, modified Shay rat procedure. The class given is in vivo, rats (male, CFE strain). The settings on record: Rattus norvegicus, read-out: Percent inhibition of gastric acid secretion. The text has this: The novel compounds of the present invention are effective inhibitors of gastric acid secretion and of ulcer development in experimental animals, and thus are potentially valuable as agents for the control of gastric secretion and of gastric erosion and as anti-ulcer agents. Gastric acid secretion inhibitory action is usually measured by the "Shay rat" procedure ^(1,2) with some modifications as follows.
(1) Shay et al., Gastroenterology, 5, 43 (1945).
The rats (male, CFE strain) were starved for 48 hours (water was given ad libitum) to permit evacuation of stomach contents. On the morning of the experiment, under ether anesthesia, the abdominal region was shaved and a midline incision (1-11/2" ) was made with a scapel. With the help of a closed curved hemostat the duodenum was picked up. Upon getting the duodenum into view, fingers were used to pull the stomach through the opening, the stomach was then gently manipulated with fingers to rid stomach of air and residual matter which were pushed through the pylorus. Two-5 inch sutures were drawn under the pyloric-duodenal puncture. A ligature at the juncture, was formed with one of the threads. The second ligature was also formed but not tightened.
The test compound or the vehicle, usually 1 ml./100 g. body weight, were injected into the duodenum as close as possible to the first ligature. After injection the second ligature was tightened below the injection site to minimize leakage. The stomach was placed back through the opening into the abdominal cavity, the area of incision was washed with saline and the incision was closed with autoclips. (Occasionally, instead of an intraduodenal injection, animals were dosed by the oral or subcutaneous route. In the latter case, dosing was done thirty to sixty minutes before the operation.)
The abdominal cavity was exposed by cutting with scissors and the esophagus close to the stomach was clamped off with a hemostat, the stomach was removed by cutting above the hemostat (the esophagus was cut) and between the two sutures. Extraneous tissue was removed, the stomach washed with saline and blotted on gauze. A slit was carefully made in the stomach which was held over a funnel and the contents were collected in a centrifuge tube. The stomach was further cut along the outside edge and turned inside out. Two ml. H2 O were used to wash the stomach contents into the respective centrifuge tube. The combined stomach contents and wash were then centrifuged out for 10 minutes in the International Size 2 Centrifuge (setting at 30). The supernatant was collected, volume measured and recorded, 2 drops of a phenylphthalein indicator (1% in 95% ethanol) were added and the solution was titrated with 0.02 N NaOH (or with 0.04 N NaOH when large volumes of stomach contents were encountered) to pH 8.4 (because of usual coloring of the stomach contents, phenolphthalein was only used to permit visual indication that the end point was near) and the amount of acid present was calculated.
Compounds inducing inhibition of gastric acid secretion of 20% or more were considered active. In a representative operation, and merely by way of illustration, the results obtained with this assay with typical compounds of the present invention are given in Table II below.

The test system of data set [5] is ulcerogenic effects induced by indomethacin (stomach ulcers). The class given is in vivo, rat. The settings on record: indomethacin 20 mg/kg s.c. On the procedure:
It is further to be noted that although prostaglandins in general are not effective when administered by oral route, the compounds of this invention are effective orally. The assay to determine the protective effect of these compounds is carried out in the following manner.
Rats were starved for 48 hours (water was given ad libitum). Indomethacin (20 mg./kg. of body weight) was administered by the subcutaneous route and one-half the dose of the test compound was administered by gavage at the same time. After three hours, the second half of the test compound was administered, also by gavage. Five hours after the administration of indomethacin the animals were decapitated and the stomachs removed. The stomachs were washed with distilled water, blotted on gauze, cut along the larger curvature, and the contents rinsed with distilled water. The stomachs were spread out, pinned on a cork and visualized under magnifying glass for ulcers. The criteria for scoring of ulcers was as previously reported. [Abdel-Galil et al. Brit. J. Pharmac. Chemotherapy 33:1-14 (1968)]. […]
1 Petechial hemorrhage of pin point ulcers
3 Many ulcers, a few large
4 Many ulcers, mainly large
Control animals treated with indomethacin but not test compound consistently give scores of about 2.5-3.5. Control animals treated with neither indomethacin not test compound give scores of about 0.5-0.8. Compounds diminishing the control ulcer score by 0.5 unit or more are considered to be active.

[6] abbreviates: 1 h, 60 min, read-out: % Inhibition of total acid output, after 60 minutes (A).
The mark [7] stands for this setting: 2 h, 120 min, read-out: % Inhibition of total acid output, after 120 minutes (B).
Where [8] appears, read: total oral dose 12.5 mg/kg, score 0-4, controls 2.5-3.0.

For the compound `CCCCC[C@H](O)/C=C/[C@H]1[C@H](C#N)CC(=O)[C@@H]1C/C=C\CCCC(=O)O` [l-11α-cyano-11-deoxyprostaglandin-E2, l-11-deoxy-11α-cyanoprostaglandin-E2], the inhibition in vivo at 10 mg/kg in data set [1] (setting [6]) stood at 49%; in data set [1] (setting [7]), 18%. In addition, the figures for the ED50 in data set [2], in data set [3] and in data set [4] were 0.0014 mg/kg, 0.0053 mg/kg and 0.0003 mg/kg, respectively.

In the case of `CCCCC[C@H](O)/C=C/[C@H]1[C@H](CC(=O)O)CC(=O)[C@@H]1C/C=C\CCCC(=O)O` [11-deoxy-11α-carboxymethylprostaglandin E2], the results for the ED50 in data set [2], in data set [3] and in data set [4] were 3.4 mg/kg, 4.6 mg/kg and 5.5 mg/kg, respectively.

Consider `CCCCC[C@@H](/C=C/[C@H]1[C@H](CO)C[C@@H](O)[C@@H]1C/C=C\CCCC(=O)OC)OC(C)=O` [l-11α-hydroxymethyl-15-O--acetyl-11-deoxyprostaglandin-F2 β methyl ester], for which the inhibition in vivo at 5 mg/kg stood at 47% in data set [1] (setting [6]) and 33% in data set [1] (setting [7]). In the data set with ligated intestine, the “Increase in weight of intestine” value was “+0.15 g”.

As for `C=C[C@@H]1C[C@H](O)[C@H](C/C=C\CCCC(=O)O)[C@H]1/C=C/[C@@H](O)CCCCC` [l-11α-vinyl-11-deoxyprostaglandin-F2 α, 11-deoxy-11α-vinylprostaglandin F2α], in data set [1] (setting [6]), the inhibition in vivo at 2.5 mg/kg amounted to 15% and the inhibition in vivo at 5 mg/kg is 53%. Besides, in data set [1] (setting [7]), the inhibition in vivo at 2.5 mg/kg was found to be 37% and the inhibition in vivo at 5 mg/kg came out at 67%. For the same compound, the “Increase in weight of intestine” value in the data set with ligated intestine is -0.36 g.

Regarding `CCCCC[C@H](O)/C=C/[C@H]1[C@H](SCC)CC(=O)[C@@H]1C/C=C\CCCC(=O)O` [l-11α-ethylthio-11-deoxyprostaglandin-E2, 11-deoxy-11α-ethylthioprostaglandin E2], the “Increase in weight of intestine” value in the data set on ligated intestine was -0.2 g.

As to `CCCCC[C@H](O)/C=C/[C@H]1[C@H](C[N+](=O)[O-])CC(=O)[C@@H]1C/C=C\CCCC(=O)O` [11-deoxy-11α-nitromethyl prostaglandin E2], the inhibition in vivo at 100 mg/kg with gastric acid secretion (intraduodenal, 100 mg/kg) is 74%. Further, the 50% effective dose (ED50) came out at 1.4 mg/kg in data set [2] and 1.7 mg/kg in data set [3]. Also, in data set [5] (total oral dose 100 mg/kg, score 0-4, controls 3.2), the “Ulcer score, treated animals” value is reported as 1.0.

Regarding `CCCCC[C@H](O)/C=C/[C@H]1[C@@H](CO)CC(=O)[C@@H]1C/C=C\CCCC(=O)O` [11-deoxy-11β-hydroxymethyl-prostaglandin E2], the inhibition in vivo at 8 mg/kg in the data set with gastric acid secretion (sc, subcutaneous, 8 mg/kg) is 44%. Further, the median effective dose (ED50) was 0.065 mg/kg in data set [2], 0.25 mg/kg in data set [3] and 0.3 mg/kg in data set [4].

Consider `CCCCC[C@H](O)/C=C/[C@H]1[C@H](C)CC(=O)[C@@H]1C/C=C\CCCC(=O)O` [l-11α-methyl-11-deoxyprostaglandin-E2, 11-deoxy-11α-methyl-prostaglandin E2], for which the inhibition in vivo at 50 mg/kg in the data set with gastric acid secretion (intraduodenal) amounted to 63%. In addition, the 50% effective dose (ED50) in data set [2] is 0.05 mg/kg; in data set [3], 1.19 mg/kg; in data set [4] it was 0.0022 mg/kg. The “Ulcer score, treated animals” value is listed as 2.5 in data set [5] (total oral dose 6.25 mg/kg, score 0 (normal) to 4, controls 3.0); 2.0 in data set [5] (setting [8]); 1.7 in data set [5] (total oral dose 25 mg/kg, score 0-4, controls 2.7-3.9).

On to `CCCCC[C@H](O)/C=C/[C@H]1C(C#N)CC(=O)[C@@H]1C/C=C\CCCC(=O)O` (stereo partly drawn) [l-11α/β-cyano-11-deoxyprostaglandin-E2, 11α/β-cyano-11-deoxy-prostaglandin E2], for which the inhibition in vivo at 25 mg/kg with gastric acid secretion (intraduodenal, 25 mg/kg) was determined as 31%. In addition, the inhibition in vivo at 50 mg/kg with gastric acid secretion (intraduodenal) was determined as 79%. For the same compound, the ED50 came out at 0.0054 mg/kg in data set [2], 0.091 mg/kg in data set [3] and 0.036 mg/kg in data set [4]. The “Ulcer score, treated animals” value in data set [5] (setting [8]) is reported as 1.2.

(Values after patent US4444691A, “11-Cyano-prostaglandins of the F-series” (American Cyanamid Company, priority 1982, dated 1984).)
